Data published in patent US20020115661A1, “Method for treating chronic obstructive pulmonary disease” (priority 2000, published 2002).

Tests used:
[1] = Plasma CI-1034 concentrations in anesthetized dogs; assay type: in vivo, dog; settings: for concentration at 5 min: plasma, intravenous
Method: (§1) Each animal received each treatment and served as its own control, with 7 days between treatments. […] Pulmonary function parameters were evaluated for 60 minutes after each dose, and included minute volume, respiratory rate, resistance, compliance, peak inspiratory and expiratory volumes, and tidal volume. Indirect blood pressure measurements were made periodically throughout the pulmonary data collection period since endothelin receptor antagonists are known to induce hypotension.
(§2) Plasma concentration in this dog 5 minutes postdose was 1960 μg/mL.

ETA receptor = target: T1, ETA receptor (Oryctolagus cuniculus, UniProt A5A8K3); assay: ET-1 induced contraction in isolated rabbit femoral artery
T1 sequence (A5A8K3 21-427): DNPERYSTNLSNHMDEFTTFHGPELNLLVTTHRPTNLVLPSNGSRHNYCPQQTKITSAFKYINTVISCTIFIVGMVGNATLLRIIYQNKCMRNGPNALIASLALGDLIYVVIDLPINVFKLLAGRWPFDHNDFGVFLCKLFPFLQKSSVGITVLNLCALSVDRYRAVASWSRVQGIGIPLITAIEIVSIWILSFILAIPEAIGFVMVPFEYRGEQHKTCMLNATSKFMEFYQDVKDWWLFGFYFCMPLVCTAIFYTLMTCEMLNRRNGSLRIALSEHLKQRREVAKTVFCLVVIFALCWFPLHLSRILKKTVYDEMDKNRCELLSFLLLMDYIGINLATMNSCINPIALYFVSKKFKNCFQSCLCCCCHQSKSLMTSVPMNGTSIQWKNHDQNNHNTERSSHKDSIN
Method: In rabbit femoral artery vasculature, the receptor responsible for mediating the contractile activity of ET-1 appears to be predominantly the ETA receptor subtype, whereas in the rabbit pulmonary artery the contractile activity of ET-1 appears to be mediated by both ETA and ETB receptors.
In rabbit femoral and pulmonary arteries, ET-1 produced concentration-dependent increases in contractile tension starting at 1 nM.

anesthetized dogs = assay: Pulmonary function in anesthetized dogs; assay type: in vivo, dog
Method: as §1, §2

rat ETA receptors = target: T2, rat ETA receptors (Rattus norvegicus, UniProt P26684); assay: [125I]ET-1 binding, membranes from rat A10 cells
T2 construct: endogenous in cells
T2 sequence (P26684 21-426): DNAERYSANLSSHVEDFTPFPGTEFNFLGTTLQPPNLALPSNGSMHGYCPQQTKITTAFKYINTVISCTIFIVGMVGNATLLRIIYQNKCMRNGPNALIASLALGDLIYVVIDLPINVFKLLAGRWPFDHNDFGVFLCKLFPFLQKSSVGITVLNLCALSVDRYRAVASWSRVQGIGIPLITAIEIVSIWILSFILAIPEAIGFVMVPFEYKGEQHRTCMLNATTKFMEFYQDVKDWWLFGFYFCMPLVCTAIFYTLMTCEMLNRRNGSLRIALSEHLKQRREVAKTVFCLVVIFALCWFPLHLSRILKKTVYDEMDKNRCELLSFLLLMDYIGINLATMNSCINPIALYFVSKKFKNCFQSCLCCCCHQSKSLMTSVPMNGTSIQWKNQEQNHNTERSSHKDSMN
From the text: Relative binding activities are given below in TABLE 3.

[2] = Octanol-aqueous partition coefficient, shake-flask method with HPLC; assay type: physicochemical
Method: Partition Coefficient: The octanol-aqueous partition coefficient at various pH values was determined by the shake-flask method using HPLC for measurement of the amount of compound in each phase.

human ETA receptors = target: T3, human ETA receptors (Homo sapiens, UniProt P25101); assay: Saturation binding of [125I]ET-1, Scatchard analysis (Ltk- cell membranes)
T3 construct: expressed in transfected cells; host or cells: Ltk- cells (mouse fibroblast, thymidine kinase deficient)
T3 sequence (P25101 21-427): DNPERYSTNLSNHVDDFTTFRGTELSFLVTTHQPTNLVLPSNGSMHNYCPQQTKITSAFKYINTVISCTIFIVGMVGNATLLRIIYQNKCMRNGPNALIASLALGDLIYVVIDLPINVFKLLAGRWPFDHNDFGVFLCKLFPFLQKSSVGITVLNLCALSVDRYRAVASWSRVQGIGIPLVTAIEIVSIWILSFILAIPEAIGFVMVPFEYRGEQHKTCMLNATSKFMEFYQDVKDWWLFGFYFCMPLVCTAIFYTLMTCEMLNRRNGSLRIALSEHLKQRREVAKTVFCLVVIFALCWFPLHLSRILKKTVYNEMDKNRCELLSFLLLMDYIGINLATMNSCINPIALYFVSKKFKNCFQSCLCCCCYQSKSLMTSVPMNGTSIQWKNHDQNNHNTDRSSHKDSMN

[3] = Thermal properties, hygroscopicity and stability; assay type: physicochemical
[4] = tested on: chronic hypoxia-induced pulmonary hypertension and RV hypertrophy; assay: Pulmonary hypertension and right ventricular hypertrophy in rats exposed to chronic hypoxia; assay type: in vivo, rat; settings: for average MPAP: hypoxic rats, days 10-20 of hypoxia
From the text: Rats were exposed to hypoxia for an additional 10 days during treatment (20 days total). A separate group of age-matched rats treated with diet alone (20 days) and no exposure to hypoxia served as normoxic controls. Blood samples, pulmonary artery pressures, and cardiac right and left ventricles were collected at the end of the 20-day protocol.
Rats exposed to 20 days of hypoxia had MPAP of 43±2 mm Hg which averaged 30 mm Hg higher than normal (13±0 mm Hg).
Heparinized plasma samples were collected approximately 1 hour before MPAP was measured.
The right ventricular hypertrophic response to hypoxia was estimated by comparing the ratio of right ventricular free wall weight to left ventricle plus septum weight (RV/LV+S) between hypoxic and normoxic control groups. Using this index, rats exposed to hypoxia had right ventricular free walls that were more than twice control (0.57±0.03 versus 0.24±0.1).

[5] = PO bioavailability in monkeys; settings: monkey, in vivo
[6] = anesthetized dogs, 30 or 60 mg/kg

Question: With `CCc1cc(C2=C(C(=O)[O-])N(c3ccccc3C(F)(F)F)S(=O)(=O)c3ccccc32)cc2c1OCO2.[K+]` [CI-1034, 4-(7-Ethyl-1,3-benzodioxol-5-yl)-2-[2-(trifluoromethyl)phenyl]-2H-1 ,2-benzothiazine-3-carboxylic acid 1,1-dioxide monopotassium salt] as the compound, how does the “plasma concentration versus dose” value ([1]; anesthetized dogs) read?
Answer: Its value is “increased proportionally with dose”.

Question: And the “Plasma Concentration” value ([1]; dog, 180 mg/kg, 5 minutes postdose, N = 1)?
Answer: Its value is 1960 µg/mL.

Question: What about the “exposure relative to projected human therapeutic Cmax of […]” value ([1]; dogs, 30 and 60 mg/kg, plasma 5 minutes postdose) of the same compound?
Answer: The value was “at least 940 times”.

Question: What about the concentration at 5 min ([1]; dog, 30 mg/kg, 5 minutes postdose) of the same compound?
Answer: Its concentration at 5 min is 301 µg/mL.

Question: What about the concentration at 5 min ([1]; dog, 60 mg/kg, 5 minutes postdose) of the same compound?
Answer: The concentration at 5 min was 574 µg/mL.

Question: What about the “potency at blocking ETA versus ETB receptor signaling” value (ETA receptor; isolated rabbit vasculature, femoral versus pulmonary artery KB) of the same compound?
Answer: The value was 389 fold.

Question: What about the “effect on ET-1 induced maximal contraction” value (ETA receptor; rabbit femoral artery) of the same compound?
Answer: The value was “not affected”.

Question: And the Schild regression slope (ETA receptor; rabbit femoral artery, r=0.99)?
Answer: The Schild regression slope was 0.88.

Question: And the “effects on pulmonary function” value (anesthetized dogs; anesthetized dog, 40 mg/kg intravenous, one animal)?
Answer: Its value is “No effects were apparent”.

Question: And the pulmonary finding (anesthetized dogs; anesthetized dog, 180 mg/kg intravenous, within 5 minutes postdose, one animal)?
Answer: Its pulmonary finding is “Respiratory arrest”.

Question: And the “effect on blood pressure” value (anesthetized dogs; [6])?
Answer: Its value is “no significant effect”.

Question: And the “effect on minute volume, pulmonary resistance, or pulmonary compliance” value (anesthetized dogs; [6])?
Answer: Its value is “no effect”.

Question: What about the “histopathology, lungs” value (anesthetized dogs; dog that died after 180 mg/kg) of the same compound?
Answer: Its value is “marked bilateral diffuse congestion”.

Question: And the “histopathology, coronary arteries” value (anesthetized dogs; dog that died after 180 mg/kg, mild, primarily right coronary arteries)?
Answer: The value was “Arteriopathy”.

Question: And the mortality (anesthetized dogs; dog, 180 mg/kg intravenous, one animal)?
Answer: Its mortality is “found dead on Day 3”.

Question: And the IC50 (rat ETA receptors)?
Answer: Its IC50 is 3.3 nM.

Question: What about the logD ([2]; pH 1, 0.1N Hydrochloric Acid) of the same compound?
Answer: Its logD is 3.24.

Question: And the logD ([2]; pH 4, 0.05 M Sodium Acetate Buffer)?
Answer: Its logD is 2.93.

Question: And the logD ([2]; pH 7.4, 0.05 M Potassium Phosphate Buffer)?
Answer: Its logD is 0.56.

Question: What about the Ki (human ETA receptors; Scatchard analysis, read-out: Ki (inhibitor constant of unlabeled antagonist)) of the same compound?
Answer: Its Ki is 0.51 nM.

Question: And the “effect on Bmax (maximal [125I]ET-1 binding)” value (human ETA receptors; saturation binding)?
Answer: Its value is “without significantly affecting”.

Question: And the “effect on apparent Kd of [125I]ET-1 binding” value (human ETA receptors; saturation binding)?
Answer: Its value is “reduced”.

Question: And the Hygroscopicity [3]?
Answer: Its Hygroscopicity is “Hygroscopicity: CI-1034 is moderately hygroscopic”.

Question: And the Stability on storage ([3]; 4 weeks at 80° C. or 40° C. and 70% relative humidity)?
Answer: The Stability on storage was “CI-1034 was stable for 4 weeks when stored at 80 °C or 40 °C and 70% relative humidity. CI-1034 does not need special storage requirements, other than the usual protection from light”.

Question: What about the “thermally stable up to” value ([3]; begins to melt with decomposition) of the same compound?
Answer: The value was “Thermal Properties: CI-1034 is thermally stable up to approximately 300° C., where it begins to melt with decomposition”.

Question: And the Stability ([3]; exposed to hydrogen peroxide)?
Answer: The Stability was “No significant degradation”.

Question: And the Stability ([3]; exposed to simulated sunlight)?
Answer: The Stability was “# peroxide. In contrast, samples exposed to simulated sunlight showed degradation”.

Question: What about the Stability ([3]; heated in acid, base, or water, protected from light) of the same compound?
Answer: The Stability was “stable”.

Question: And the EC50 ([4]; Rattus norvegicus, simple Emax model, chronic hypoxia, read-out: plasma concentration predicted to produce half-maximal effect)?
Answer: The EC50 was 0.32 ± 0.25 µg/mL.

Question: And the “average MPAP” value ([4]; 25 mg/kg/day in diet)?
Answer: Its value is 37±2 mm Hg.

Question: What about the “average MPAP” value ([4]; 50 mg/kg/day in diet) of the same compound?
Answer: Its value is 33±0 mm Hg.

Question: What about the “average MPAP” value ([4]; 100 mg/kg/day in diet) of the same compound?
Answer: The value was 29±2 mm Hg.

Question: And the “predicted maximal antihypertensive effect” value ([4]; simple Emax model, chronic hypoxia)?
Answer: The value was 60%±18%.

Question: What about the bioavailability [5] of the same compound?
Answer: Its bioavailability is roughly 10%.
